Measurements from patent EP0294258A1, “Hydrazine derivatives, process for obtaining them and pharmaceutical composition containing them” (priority 1987, dated 1988).
Where two headings read alike, the source gives them in different places.

Columns and labels:
[1] = system: rat spontanément hypertendu (S.H.R.); test: Antihypertensive activity in the spontaneously hypertensive rat (SHR); format: in vivo; conditions: for minimal effective dose: Rattus norvegicus, read-out: Activité anti-hypertensive SHR Dose minimale active
Acute toxicity (DL 50) = conditions: in vivo
souris [2] = test: Spontaneous motility; format: in vivo; conditions: I.P.
souris [3] = test: Antagonism of amphetamine hypermotility; format: in vivo; conditions: I.P.
souris [4] = test: Exploratory activity; format: in vivo; conditions: Mus musculus, ip; I.P.; read-out: diminue l'activité d'exploration D.E.50
souris [5] = test: Motor incoordination; format: in vivo; conditions: I.P.
souris [6] = test: Hypothermia; format: in vivo; conditions: I.P.
souris [7] = test: Analgesic activity, P.B.Q. test; conditions: in vivo
souris [8] = test: Analgesic activity, hot plate; format: in vivo; conditions: I.P.
souris [9] = test: Potentiation of barbiturate sleep; format: in vivo; conditions: I.P.
souris [10] = test: Yohimbine test; conditions: in vivo
souris [11] = test: Apomorphine test; conditions: in vivo
souris [12] = test: Oxotremorine test; format: in vivo; conditions: à forte dose
rat = test: Anti-inflammatory activity, carrageenan test; format: in vivo; conditions: I.P.
rat normotendu = test: Cardiovascular effects in the normotensive rat; format: in vivo; conditions: 50 mg.kg^-1 I.P.

Structure (SMILES)	Activité anti-hypertensive SHR Dose minimale active ([1]; route not given)	LD50 (Acute toxicity (DL 50); ip, I.P.)	minimal effective dose ([1]; ip, I.P.)	also measured
CC(C)(O)C(=O)NN=Cc1ccccc1Cl [1a, reference compound]	inactif	490 mg/kg	–	–
CC(=NNC(=O)C(C)(C)O)c1ccc(Cl)cc1 [1b, reference compound]	inactif	150 mg/kg	–	–
CC(C)(O)C(=O)NN=Cc1ccc(Cl)cc1 [1c, reference compound]	inactif	660 mg/kg	–	–
CC(C)(O)CC(=O)NN=Cc1ccccc1Cl [1d, reference compound]	inactif	433 mg/kg	–	–
CC(=NNC(=O)CC(C)(C)O)c1ccccc1Cl [1e, reference compound]	inactif	227 mg/kg	–	–
CC(O)C(=O)NN=Cc1ccccc1Cl (stereo not shown) [3a, reference compound]	inactif	–	–	LD50 (Acute toxicity (DL 50); route not given): 300 mg/kg
COCC(=O)NN=Cc1ccccc1Cl [6a, reference compound]	inactif	477 mg/kg	–	–
NCC(=O)NN=Cc1ccccc1Cl [7a, reference compound]	inactif	360 mg/kg	–	–
NC(=O)C(=O)NN=Cc1ccccc1Cl [9a, reference compound]	inactif	> 400 mg/kg	–	–
CC(=NNC(=O)C(C)(C)O)c1ccccc1Cl [Exemple 1, (hydroxy-2 isobutyroyl)-1 (orthochlorophényl-1 éthylidène-1)-2 hydrazine]	–	482 mg/kg	–	minimal effective dose ([1]; po, P.O.): 2 mg/kg; fréquence cardiaque ([1]; administration P.O.): n'est pas modifiée de manière significative; action antihypertensive ([1]; administration répétée sur 5 jours, 1,5 mg.kg^-1 P.O.): confirment l'action antihypertensive; diminue la pression artérielle du rat spontanément hypertendu (S.H.R.) D.E.so ([1]; administration unique, I.P.): 1,9 mg.kg^-1; action antihypertensive D.E.50 ([1]; administration unique, P.O.): 2 mg/kg; activité antihypertensive (dose) ([1]; per os, rat SHR printed for MP 440 only): 2 mg/kg; diminue la motilité spontanée D.E.50 (souris [2]): 10 mg/kg; antagonise l'hypermotilité amphétaminique à partir de (dose) (souris [3]): ≥ 12,5 mg.kg^-1; ED50 (souris [4]): 27 mg/kg; incoordination motrice uniquement à forte dose (souris [5]): 50 mg/kg; hypothermie uniquement à forte dose (souris [6]): 50 mg/kg; activité analgésique au test à la P.B.Q. (souris [7]): faible; activité analgésique "plaque chauffante" D.E.50 (souris [8]): 6 mg/kg; potentialise le sommeil barbiturique dès la dose de (souris [9]): ≥ 12,5 mg.kg^-1; test de la yohimbine (souris [10]): inactif; test à l'apomorphine (souris [11]): inactif; test à l'oxotrémorine (souris [12]): modifie de façon peu nette; anti-inflammatoire sur le test à la carraghénine D.E.so (rat): 38 mg/kg; pression artérielle du rat normotendu (rat normotendu): sans modifier; rythme cardiaque du rat normotendu (rat normotendu): augmente significativement
CC(=NNC(=O)C(C)O)c1ccccc1Cl (stereo not shown) [Exemple 3, (hydroxy-2 propanoyl)-1 (orthochlorophényl-1 éthylidène-1)-2 hydrazine]	–	240 mg/kg	12.5 mg/kg	–
CC(=NNC(=O)CO)c1ccccc1Cl [Exemple 4, (hydroxy-2 acétyl)-1 (orthochlorophényl-1 éthylidène-1)-2 hydrazine]	–	583 mg/kg	–	minimal effective dose ([1]; route not given): 3.13 mg/kg
COCC(=O)NN=C(C)c1ccccc1Cl [Exemple 6, (méthoxy-2 acétyl)-1 (orthochlorophényl-1 éthylidène-1)-2 hydrazine]	–	200 mg/kg	6.25 mg/kg	–
CC(=NNC(=O)CN)c1ccccc1Cl [Exemple 7, (amino-2 acétyl)-1 (orthochlorophényl-1 éthylidène-1)-2 hydrazine]	–	143 mg/kg	–	minimal effective dose ([1]; po, P.O.): 2 mg/kg
CSCC(=O)NN=C(C)c1ccccc1Cl [Exemple 8, (méthylthio-2 acétyl)-1 (orthochlorophényl-1 éthylidène-1)-2 hydrazine]	–	> 400 mg/kg	12.5 mg/kg	–
CC(=NNC(=O)C(N)=O)c1ccccc1Cl [Exemple 9, oxamoyl-1 (orthochlorophényl-1 éthylidène-1)-2 hydrazine]	–	> 400 mg/kg	12.5 mg/kg	–
CCC(=NNC(=O)C(C)(C)O)c1ccccc1Cl [Exemple 16, (hydroxy-2 isobutyroyl)-1 (orthochlorophényl-1 propylidène-1)-2 hydrazine]	–	179 mg/kg	6.25 mg/kg	–
CCCCC(=NNC(=O)C(C)(C)O)c1ccccc1Cl [Exemple 26, (hydroxy-2 isobutyroyl)-1 (chloro-2 phényl-1 pentylidène-1)-2 hydrazine]	–	> 400 mg/kg	6.25 mg/kg	–
